Results taken from PubChem BioAssay (NCI).
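Method: 48-hour compound exposure of cells in 96-well plates, five concentrations, linear interpolation of endpoints. TGI: concentration producing complete growth inhibition.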 Where a SMILES comes first, the peptide text is derived from it. [ ]: non-standard residue; d: D form. The star is where a group is joined. Tyr(3-Br) = N[C@@H](Cc1ccc(O)c(Br)c1)C(=O)O; Boc = CC(C)(C)OC(=O)*

Columns and labels:
Test in all cases: NCI-60 cell line screen, 48 h
CAKI-1 renal = test system: CAKI-1 renal
RPMI-8226 leukemia = test system: RPMI-8226 leukemia
OVCAR-4 ovarian = test system: OVCAR-4 ovarian
MCF7 breast = test system: MCF7 breast
BT-549 breast = test system: BT-549 breast
PC-3 prostate = test system: PC-3 prostate
SR leukemia = test system: SR leukemia
SK-MEL-2 melanoma = test system: SK-MEL-2 melanoma
SF-539 CNS = test system: SF-539 CNS
LOX IMVI melanoma = test system: LOX IMVI melanoma
DU-145 prostate = test system: DU-145 prostate
SK-MEL-28 melanoma = test system: SK-MEL-28 melanoma
T-47D breast = test system: T-47D breast

| Compound | TGI (CAKI-1 renal) [µM] | TGI (RPMI-8226 leukemia) [µM] | TGI (OVCAR-4 ovarian) [µM] | TGI (MCF7 breast) [µM] | TGI (BT-549 breast) [µM] | TGI (PC-3 prostate) [µM] | TGI (SR leukemia) [µM] | TGI (SK-MEL-2 melanoma) [µM] | TGI (SF-539 CNS) [µM] | TGI (LOX IMVI melanoma) [µM] | TGI (DU-145 prostate) [µM] | TGI (SK-MEL-28 melanoma) [µM] | TGI (T-47D breast) [µM] |
| --- | --- | --- | --- | --- | --- | --- | --- | --- | --- | --- | --- | --- | --- |
| CC(C)(C)c1cc2c(O)c(c1)Cc1cc(C(C#N)(Cc3ccc4ccccc4c3)Cc3ccc4ccccc4c3)cc(c1O)Cc1cc(C(C)(C)C)cc(c1O)Cc1cc(C(C#N)(Cc3ccc4ccccc4c3)Cc3ccc4ccccc4c3)cc(c1O)C2 | > 100 | > 100 | > 100 | > 100 | > 100 | > 100 | > 100 | > 100 | > 100 | > 100 | > 100 | > 100 | > 100 |
| Cc1ccc2c(n1)C(=O)C=CC2=O | 4.54 | 11 | 12.8 | 53.8 | 31.5 | 31.9 | > 100 | 32.3 | 35.3 | 12.6 | 30.7 | 15.3 | 4.74 |
| COC(=O)[C@H](Cc1ccc(O)c(Br)c1)NC(=O)[C@H](Cc1ccc(O)cc1)NC(=O)OC(C)(C)C (Boc-Tyr-[Tyr(3-Br)]-OMe) | > 100 | 91 | > 100 | > 100 | 98.1 | > 100 | > 100 | > 100 | 94.9 | 42.6 | > 100 | > 100 | 44.4 |
| COc1cc(NC(C)=O)ccc1C(=O)NN1C(=O)C(Cl)C1c1ccco1 (stereo not drawn) | > 100 | > 100 | > 100 | > 100 | > 100 | > 100 | > 100 | > 100 | > 100 | > 100 | > 100 | > 100 | > 100 |
| Cc1nn(C(=O)c2ccncc2)c2c1C(c1ccccc1)SC(N)=N2 (stereo not drawn) | > 10 | > 10 | > 10 | > 10 | > 10 | > 10 | > 10 | > 10 | > 10 | > 10 | > 10 | > 10 | > 10 |
| Cc1cc(N=Nc2c(O)ccc3ccccc23)ccc1N=Nc1cccc([N+](C)(C)C)c1 | 62.9 | > 46.5 | > 100 | > 53.1 | 15.7 | 35.1 | > 100 | 47.3 | 22.3 | > 40.3 | 48.2 | 62.3 | > 100 |
